In US20140135270A1, “MACROCYCLIC COMPOUNDS FOR INHIBITION OF INHIBITORS OF APOPTOSIS” (Ensemble Therapeutics Corp., priority 2012, published 2014) one finds IC50 data, which are given here for 20 molecules.

The target of assay [1] is T1, His-BIR2-3 (125-356, C202A/C213G, XIAP) (Homo sapiens, UniProt P98170, C202A/C213G).
T1 construct: additions of His-BIR2-3 (125-356, C202A/C213G, XIAP), fluorescein labeled dimeric SMAC peptide
The assay can be described thus: XIAP-BIR2-3 Dimeric SMAC Peptide Homogeneous Time Resolved Fluorescence (HTRF) Assay. Type of assay: binding. To be noted: fluorescein labeled dimeric SMAC peptide.

In a further assay the target is T2, His-BIR3 (241-356, XIAP) (Homo sapiens, UniProt P98170).
T2 construct: additions of His-BIR3 (241-356, XIAP), fluorescein labeled SMAC peptide
T2 sequence (P98170 241-356): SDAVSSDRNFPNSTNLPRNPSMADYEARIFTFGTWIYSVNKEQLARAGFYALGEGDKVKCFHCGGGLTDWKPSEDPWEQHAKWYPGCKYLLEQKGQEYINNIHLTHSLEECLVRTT
The assay can be described thus: XIAP-BIR3/SMAC Homogeneous Time Resolved Fluorescence (HTRF) Assay. Type of assay: binding. To be noted: fluorescein labeled SMAC peptide.

T1 sequence (P98170 125-356 C202A/C213G): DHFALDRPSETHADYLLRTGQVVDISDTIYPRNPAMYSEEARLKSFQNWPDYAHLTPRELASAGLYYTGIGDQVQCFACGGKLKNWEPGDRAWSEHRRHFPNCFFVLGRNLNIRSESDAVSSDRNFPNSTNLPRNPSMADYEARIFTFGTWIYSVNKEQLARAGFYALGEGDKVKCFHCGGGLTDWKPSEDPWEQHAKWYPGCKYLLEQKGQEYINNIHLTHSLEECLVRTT

With `CN[C@@H](C)C(=O)N[C@@H](Cc1ccccc1)C(=O)N1C[C@@H]2C[C@H]1C(=O)N[C@@H](Cc1ccc3ccccc3c1)C(=O)N[C@H](C(=O)O)Cc1ccc(cc1)C(=O)N[C@H]1C[C@@H](C(=O)N[C@@H](Cc3ccc4ccccc4c3)C(=O)N[C@H](C(=O)O)Cc3ccc(cc3)OC/C=C/CO2)N(C(=O)[C@@H](NC(=O)[C@H](C)NC)C(C)(C)C)C1` [Example 70], the IC50 in assay [1] was determined as 2 nM; at His-BIR3 (241-356, XIAP) it was 9.3 nM.

`CN[C@@H](C)C(=O)N[C@H](C(=O)N1C[C@@H]2C[C@H]1C(=O)N[C@@H](Cc1ccc3ccccc3c1)C(=O)NC(C(=O)O)Cc1ccc(cc1)OC/C=C/CO[C@H]1C[C@@H](C(=O)N[C@@H](Cc3ccc4ccccc4c3)C(=O)N[C@H](C(=O)O)Cc3ccc(cc3)O2)N(C(=O)[C@@H](NC(=O)[C@H](C)NC)C(C)(C)C)C1)C(C)(C)C` (stereo partly shown) [Example 84]: the IC50 in assay [1] was 1.3 nM; at His-BIR3 (241-356, XIAP), 2.9 nM.

In the case of `CN[C@@H](C)C(=O)N[C@H](C(=O)N1C[C@@H]2C[C@H]1C(=O)N[C@@H](Cc1ccc3ccccc3c1)C(=O)N[C@H](C(=O)O)Cc1ccc(cc1)OC/C=C/CO[C@H]1C[C@@H](C(=O)N[C@@H](c3ccccc3)C(=O)N[C@H](C(=O)O)Cc3ccc(cc3)C(=O)N2)N(C(=O)[C@@H](NC(=O)[C@H](C)NC)C(C)(C)C)C1)C(C)(C)C` [Example 53], the IC50 amounted to 2.5 nM in assay [1] and 47.4 nM on His-BIR3 (241-356, XIAP).

For the molecule `CN[C@@H](C)C(=O)N[C@H](C(=O)N1C[C@@H]2C[C@H]1C(=O)N[C@@H](Cc1ccc3ccccc3c1)C(=O)N[C@H](C(=O)O)Cc1ccc(cc1)OC/C=C/C[C@H]1C[C@@H](C(=O)N[C@@H](Cc3ccc4ccccc4c3)C(=O)N[C@H](C(=O)NS(=O)(=O)C3CC3)Cc3ccc(cc3)OCc3cnnn32)N(C(=O)[C@@H](NC(=O)[C@H](C)NC)C(C)(C)C)C1)C(C)(C)C` [Example 102], the IC50 in assay [1] was 35 nM; against His-BIR3 (241-356, XIAP), 10 nM.

In the case of `CN[C@@H](C)C(=O)N[C@H](C(=O)N1C[C@@H]2C[C@H]1C(=O)N[C@@H](Cc1ccc3ccccc3c1)C(=O)N[C@H](C(=O)O)Cc1ccc(cc1)OC/C=C/CO[C@H]1C[C@@H](C(=O)N[C@@H](Cc3ccc(-c4ccc(O)cc4)cc3)C(=O)N[C@H](C(=O)NS(=O)(=O)C3CC3)Cc3ccc(cc3)OCc3cn2nn3)N(C(=O)[C@@H](NC(=O)[C@H](C)NC)C(C)(C)C)C1)C(C)(C)C` [Example 113], the IC50 is 7.1 nM in assay [1] and 13.5 nM on His-BIR3 (241-356, XIAP).

On to `CN[C@@H](C)C(=O)N[C@H](C(=O)N1C[C@@H]2C[C@H]1C(=O)N[C@@H](Cc1ccc3ccccc3c1)C(=O)N[C@H](C(=O)O)Cc1ccc(cc1)OCCCCO[C@H]1C[C@@H](C(=O)N[C@@H](Cc3ccc4ccccc4c3)C(=O)N[C@H](C(=O)NS(=O)(=O)c3ccccn3)Cc3ccc(cc3)OCc3cn2nn3)N(C(=O)[C@@H](NC(=O)[C@H](C)NC)C(C)(C)C)C1)C(C)(C)C` [Example 125], for which the IC50 in assay [1] came to 2.7 nM; at His-BIR3 (241-356, XIAP), 3.7 nM.

`CN[C@@H](C)C(=O)N[C@H](C(=O)N1C[C@@H]2C[C@H]1C(=O)N[C@@H](Cc1ccc3ccccc3c1)C(=O)N[C@H](C(=O)O)Cc1ccc(cc1)OC/C=C/CO[C@H]1C[C@@H](C(=O)N3Cc4ccccc4C[C@H]3C(=O)N[C@H](C(=O)NS(=O)(=O)C3CC3)Cc3ccc(cc3)OCc3cn2nn3)N(C(=O)[C@@H](NC(=O)[C@H](C)NC)C(C)(C)C)C1)C(C)(C)C` [Example 105]: the IC50 in assay [1] amounted to 13.2 nM; at His-BIR3 (241-356, XIAP), 49.7 nM.

In the case of `CN[C@@H](C)C(=O)N[C@H](C(=O)N1CC[C@H]2OC/C=C/CC[C@@H](C(=O)O)NC(=O)[C@H](Cc3ccc4ccccc4c3)NC(=O)[C@@H]3[C@@H](CCN3C(=O)[C@@H](NC(=O)[C@H](C)NC)C(C)(C)C)OCc3cn(nn3)[C@H](C(=O)O)CCNC(=O)[C@H](Cc3ccc4ccccc4c3)NC(=O)[C@H]21)C(C)(C)C` [Example 15], the IC50 in assay [1] worked out at 4.1 nM; at His-BIR3 (241-356, XIAP) it was 38.9 nM.

On to `CN[C@@H](C)C(=O)N[C@H](C(=O)N1C[C@@H]2C[C@H]1C(=O)N[C@@H](Cc1ccc3ccccc3c1)C(=O)N[C@H](C(=O)O)Cc1ccc(cc1)OC/C=C/CO[C@H]1C[C@@H](C(=O)N[C@@H](Cc3cccc(-c4ccc(CO)cc4)c3)C(=O)N[C@H](C(=O)NS(=O)(=O)C3CC3)Cc3ccc(cc3)OCc3cn2nn3)N(C(=O)[C@@H](NC(=O)[C@H](C)NC)C(C)(C)C)C1)C(C)(C)C` [Example 117], for which the IC50 in assay [1] worked out at 11.3 nM; on His-BIR3 (241-356, XIAP) it was 9.4 nM.

Turning to `CN[C@@H](C)C(=O)N[C@H](C(=O)N1C[C@@H]2C[C@H]1C(=O)N[C@@H](Cc1ccc3ccccc3c1)C(=O)N[C@H](C(=O)O)Cc1ccc(cc1)OC/C=C/CO[C@H]1C[C@@H](C(=O)N[C@@H](c3ccccc3)C(=O)N[C@H](C(=O)O)Cc3ccc(cc3)C(=O)N2)N(C(=O)[C@@H](NC(=O)[C@H](C)NC)C(C)(C)C)C1)C(C)(C)C` [Example 51], the IC50 in assay [1] was determined as 4.8 nM; against His-BIR3 (241-356, XIAP), 61 nM.

Turning to `CN[C@@H](C)C(=O)N[C@H](C(=O)N1CCC2[C@H]1C(=O)N[C@@H](Cc1ccc3ccccc3c1)C(=O)N[C@H](C(=O)O)Cc1ccc(cc1)OC/C=C/CO[C@H]1C[C@@H](C(=O)N[C@@H](Cc3ccc4ccccc4c3)C(=O)N[C@H](C(=O)O)Cc3ccc(cc3)OCc3cn2nn3)N(C(=O)[C@@H](NC(=O)[C@H](C)NC)C(C)(C)C)C1)C(C)(C)C` (stereo partly shown) [Example 13], the IC50 in assay [1] was found to be 12.4 nM; against His-BIR3 (241-356, XIAP), 5.4 nM.

In the case of `CN[C@@H](C)C(=O)N[C@@H](CC(N)=O)C(=O)N1C[C@@H]2C[C@H]1C(=O)N[C@@H](Cc1ccc3ccccc3c1)C(=O)N[C@H](C(=O)O)Cc1ccc(cc1)C(=O)N[C@H]1C[C@@H](C(=O)N[C@@H](Cc3ccc4ccccc4c3)C(=O)N[C@H](C(=O)O)Cc3ccc(cc3)OC/C=C/CO2)N(C(=O)[C@@H](NC(=O)[C@H](C)NC)C(C)(C)C)C1` [Example 72], the IC50 worked out at 9.3 nM in assay [1] and 48.5 nM at His-BIR3 (241-356, XIAP).

Consider `CN[C@@H](C)C(=O)N[C@H](C(=O)N1C[C@@H]2C[C@H]1C(=O)N[C@@H](Cc1ccc3ccccc3c1)C(=O)N[C@H](C(=O)O)Cc1ccc(cc1)OC/C=C/CO[C@H]1C[C@@H](C(=O)N[C@@H](Cc3ccc4ccccc4c3)C(=O)N[C@H](C(=O)O)Cc3ccc(cc3)C(=O)N2)N(C(=O)[C@@H](NC(=O)[C@H](C)N(C)C(C)=O)C(C)(C)C)C1)C(C)(C)C` [Example 73], for which the IC50 in assay [1] amounted to 440 nM; at His-BIR3 (241-356, XIAP), 29.3 nM.

For `CN[C@@H](C)C(=O)N[C@H](C(=O)N1C[C@@H]2C[C@H]1C(=O)N[C@@H](Cc1ccc3ccccc3c1)C(=O)N[C@H](C(=O)O)Cc1ccc(cc1)OCc1cn(nn1)[C@H]1C[C@@H](C(=O)N[C@@H](Cc3ccc4ccccc4c3)C(=O)N[C@H](C(=O)NS(=O)(=O)C3CC3)Cc3ccc(cc3)OCCCCO2)N(C(=O)[C@@H](NC(=O)[C@H](C)NC)C(C)(C)C)C1)C(C)(C)C` [Example 123], the IC50 in assay [1] turned out to be 5.4 nM; on His-BIR3 (241-356, XIAP) it was 7.8 nM.

Consider `CN[C@@H](C)C(=O)N[C@@H](CC(=O)O)C(=O)N1C[C@@H]2C[C@H]1C(=O)N[C@@H](Cc1ccc3ccccc3c1)C(=O)N[C@H](C(=O)O)CCC(=O)N[C@H]1C[C@@H](C(=O)N[C@@H](Cc3ccc4ccccc4c3)C(=O)N[C@H](C(=O)O)Cc3ccc(cc3)OC/C=C/CO2)N(C(=O)[C@@H](NC(=O)[C@H](C)NC)C(C)(C)C)C1` [Example 58], for which the 50% inhibitory concentration (IC50) in assay [1] came to 138 nM; against His-BIR3 (241-356, XIAP) it was 757 nM.

As for `CNC(C)C(=O)NC(C(=O)N1CC2CC1C(=O)NC(Cc1ccc3ccccc3c1)C(=O)NC(C(=O)O)Cc1ccc(cc1)OCC=CCOC1CC(C(=O)NC(Cc3ccc4ccccc4c3)C(=O)NC(C(=O)O)Cc3ccc(cc3)CC(=O)N2)N(C(=O)C(NC(=O)C(C)NC)C(C)(C)C)C1)C(C)(C)C` (stereo not shown) [Example 30], the IC50 in assay [1] was 1.1 nM; against His-BIR3 (241-356, XIAP) it was 7.5 nM.

Take `CN[C@@H](C)C(=O)N[C@H](C(=O)N1CC[C@H]2OC/C=C/COc3ccc(cc3)C[C@@H](C(=O)O)NC(=O)[C@H](Cc3ccc4ccccc4c3)NC(=O)[C@@H]3[C@@H](CCN3C(=O)[C@@H](NC(=O)[C@H](C)NC)C(C)(C)C)OCc3cn(nn3)[C@H](C(=O)O)CCNC(=O)[C@H](Cc3ccc4ccccc4c3)NC(=O)[C@H]21)C(C)(C)C` [Example 14]: the 50% inhibitory concentration (IC50) was 3.7 nM in assay [1] and 17 nM at His-BIR3 (241-356, XIAP).

On to `CN[C@@H](C)C(=O)N[C@H](C(=O)N[C@H]1C/C=C\CC[C@@H](C(=O)O)NC(=O)[C@H](Cc2ccc3ccccc3c2)NC(=O)[C@@H]2CN(CCN2C(=O)[C@@H](NC(=O)[C@H](C)NC)C(C)(C)C)C(=O)CNC(=O)CC[C@@H](C(=O)O)NC(=O)[C@H](Cc2ccc3ccccc3c2)NC1=O)C(C)(C)C` [Example 76], for which the IC50 is 14.6 nM in assay [1] and 293 nM against His-BIR3 (241-356, XIAP).

As for `CN[C@@H](C)C(=O)N[C@H](C(=O)N1CC[C@H]2OCc3cn(nn3)CC[C@@H](C(=O)OC)NC(=O)[C@H](Cc3ccc4ccccc4c3)NC(=O)[C@@H]3[C@@H](CCN3C(=O)[C@@H](NC(=O)[C@H](C)NC)C(C)(C)C)OC/C=C/CC[C@@H](C(=O)O)NC(=O)[C@H](Cc3ccc4ccccc4c3)NC(=O)[C@H]21)C(C)(C)C` [Example 16], the IC50 in assay [1] was 3.5 nM; at His-BIR3 (241-356, XIAP), 6.2 nM.

For the molecule `CN[C@@H](C)C(=O)N[C@H](C(=O)N1C[C@@H]2C[C@H]1C(=O)NC(Cc1ccc3ccccc3c1)C(=O)N[C@H](C(=O)NS(=O)(=O)C1CC1)Cc1ccc(cc1)OCCCC[C@H]1C[C@@H](C(=O)N[C@@H](Cc3ccc4ccccc4c3)C(=O)N[C@H](C(=O)NS(=O)(=O)C3CC3)Cc3ccc(cc3)OCc3cn2nn3)N(C(=O)[C@@H](NC(=O)[C@H](C)NC)C(C)(C)C)C1)C(C)(C)C` (stereo partly shown) [Example 100], the IC50 in assay [1] was 4.2 nM; against His-BIR3 (241-356, XIAP), 4.6 nM.
